Here are results for one molecule from patent US9566240B2, “Compositions for multiphase, staggered, or sustained release of an active substance” (CLABBER GIRL CORPORATION, priority 2014, dated 2017).

Test [1] concerns composited rumen contents. Description: In vitro ruminal incubation: volatile fatty acid production. The method, then: Each of the products was tested using in vitro ruminal incubation to determine the product's influence on ruminal pH, volatile fatty acid production in relation to changes in ruminal pH, and the associative effects of ruminal pH and volatile fatty acid on dry matter disappearance, starch disappearance, and neutral detergent fiber disappearance. Incubation solution containing water, composited rumen contents, and Van Soest buffer was placed in 1 L-incubation vessels (1 L oval deli cup with lid and Bunsen valve). Simulated feeding bags were obtained by placing 3 g of ground (Wiley Mill, 8 mm screen) total meal rations (10% alfalfa hay, 35% corn silage, 50% corn grain, and 5% vitamin/minerals) into 5 cm×10 cm bags with a pore size of 40 microns. Product 1 was added to each of eight replicate feeding bags in an amount at 0.2273 g/L. Product 2 was added to another set of eight replicate bags in an amount of 0.3704 g/L. Product 3 was added to another set of eight replicate bags in an amount of 0.5710 g/L. Control was added to another set of eight replicate bags in an amount of 0.1 g/L. A fifth set of eight replicate bags contained just the 3g of ground total meal rations to serve as a “Blank” control. To simulate twice-a-day-feeding, four replicates from each set of replicates were added to the incubation vessels at zero hours (0 H), and four more were added at twelve hours (12 H). The incubation vessels were placed into a temperature controlled, air jacketed, anaerobic incubator (39° C., and 20% carbon dioxide) for the duration of their assigned incubation time. Ruminal pH was measured during each incubation time. At zero hours and twelve hours, pH was also recorded before and after the simulated feeding. […] Dry matter disappearance, starch disappearance, and neutral detergent fiber disappearance were measured by removing replicate bags at the same hours the volatile fatty acid aliquots were taken, drying them in a forced-air oven at 60° C. to a constant weight, and storing them for future analysis. […] The first feeding was monitored for 12 hours (2, 6, and 12). Then the second feeding was monitored at 14 and 18 hours which corresponded to the 2 and 6 hours post-feeding.

The test system of test [2] is composited rumen contents. Description: In vitro ruminal incubation: ruminal pH. To be noted: over a 24 hour feeding cycle. The method, then:
Each of the products was tested using in vitro ruminal incubation to determine the product's influence on ruminal pH, volatile fatty acid production in relation to changes in ruminal pH, and the associative effects of ruminal pH and volatile fatty acid on dry matter disappearance, starch disappearance, and neutral detergent fiber disappearance. Incubation solution containing water, composited rumen contents, and Van Soest buffer was placed in 1 L-incubation vessels (1 L oval deli cup with lid and Bunsen valve). Simulated feeding bags were obtained by placing 3 g of ground (Wiley Mill, 8 mm screen) total meal rations (10% alfalfa hay, 35% corn silage, 50% corn grain, and 5% vitamin/minerals) into 5 cm×10 cm bags with a pore size of 40 microns. […] Ruminal pH was measured during each incubation time. At zero hours and twelve hours, pH was also recorded before and after the simulated feeding. […] Dry matter disappearance, starch disappearance, and neutral detergent fiber disappearance were measured by removing replicate bags at the same hours the volatile fatty acid aliquots were taken, drying them in a forced-air oven at 60° C. to a constant weight, and storing them for future analysis.

For test [3], the system named is composited rumen contents. Briefly: In vitro ruminal incubation: dry matter, starch and neutral detergent fiber disappearance. The method, then: Each of the products was tested using in vitro ruminal incubation to determine the product's influence on ruminal pH, volatile fatty acid production in relation to changes in ruminal pH, and the associative effects of ruminal pH and volatile fatty acid on dry matter disappearance, starch disappearance, and neutral detergent fiber disappearance.
Incubation solution containing water, composited rumen contents, and Van Soest buffer was placed in 1 L-incubation vessels (1 L oval deli cup with lid and Bunsen valve). Simulated feeding bags were obtained by placing 3 g of ground (Wiley Mill, 8 mm screen) total meal rations (10% alfalfa hay, 35% corn silage, 50% corn grain, and 5% vitamin/minerals) into 5 cm×10 cm bags with a pore size of 40 microns. Product 1 was added to each of eight replicate feeding bags in an amount at 0.2273 g/L. Product 2 was added to another set of eight replicate bags in an amount of 0.3704 g/L. Product 3 was added to another set of eight replicate bags in an amount of 0.5710 g/L. Control was added to another set of eight replicate bags in an amount of 0.1 g/L. A fifth set of eight replicate bags contained just the 3g of ground total meal rations to serve as a “Blank” control.
To simulate twice-a-day-feeding, four replicates from each set of replicates were added to the incubation vessels at zero hours (0 H), and four more were added at twelve hours (12 H). The incubation vessels were placed into a temperature controlled, air jacketed, anaerobic incubator (39° C., and 20% carbon dioxide) for the duration of their assigned incubation time.
Ruminal pH was measured during each incubation time. At zero hours and twelve hours, pH was also recorded before and after the simulated feeding. Volatile fatty acid production was measured by taking 50 ml aliquots of the supernatant of each incubation vessel at 0, 2, 6, 12, 14, 18, and 24 hours, acidifying the aliquot with 5 ml of 50% HCl, and freezing it for future analysis. Dry matter disappearance, starch disappearance, and neutral detergent fiber disappearance were measured by removing replicate bags at the same hours the volatile fatty acid aliquots were taken, drying them in a forced-air oven at 60° C. to a constant weight, and storing them for future analysis.
Dry matter, starch, and neutral detergent fiber concentrations were measured at 2, 4, 6, 10, 12, 16, 18, and 22 hours of incubation. The measurements for starch disappearance and neutral detergent fiber disappearance were made at 2, 6, 16, and 22 hours of incubation. The early times were selected to monitor the faster degradation of starch, and the later times to monitor the slower degradation of neutral detergent fiber. […]

The mark [4] stands for this setting: in vitro incubation, at the two peaks of 2 and 14 hours.
The mark [5] stands for this setting: in vitro incubation, overall values at 18 hours.

With `O=C([O-])O.[Na+]` [Control, sodium bicarbonate], in test [1] (at 18 H, after the second feeding (12 H), FIG. 4), the “total volatile fatty acids concentration” value is “higher concentration at 18 H compared to that of Product 2”. Further, in test [1] (from Table 3, high total VFA plus high propionic acid without decrease in acetic acid), the “ratio of even- to odd-numbered carbon chain VFAs, overall assessment” value is given as “superior to the other treatments”. In addition, in test [1] (setting [4]), the “A:P Peaks (acetic acid to propionic acid ratio at peak concentrations)” value was found to be 8.30; the “AB:P Peaks (sum of acetic and butyric acid to propionic acid ratio at peak concentrations)” value was determined as 9.39. Further, in test [1] (setting [5]), the “A:P (acetic acid to propionic acid ratio)” value is listed as 11.61; the “AB:P (sum of acetic acid and butyric acid to propionic acid ratio)” value turned out to be 12.50. Further, the “buffering of rumen pH” value in test [2] is on record as “only a “flash” neutralization that was soon dissipated”. For the same molecule, in test [3] (first 11 hours of the feeding cycle), the dry matter disappearance entry was “little dry matter disappearance”. For the same molecule, the dry matter disappearance entry in test [3] (in vitro incubations, FIG. 8) is “best results”. Moreover, the starch disappearance entry in test [3] (in vitro incubations, FIG. 9) is reported as “best results”. In test [3] (in vitro incubations, FIG. 10), the “neutral detergent fiber disappearance” value is “higher neutral detergent fiber disappearance over Products 1, 2, and 3, and Blank”.
